Assay results as given in patent US4151300A, “Acetohydroxamic acids” (Laboratoire L. Lafon, priority 1976, dated 1979).
Entries after “also recorded” stand apart in the source; their conditions may differ. Read-outs that look alike come from different tables or passages of the source.

Tests used:
[1] = test system: mice; assay: interaction with oxotremorine (temperature, trembling, peripheral cholinergic symptoms); format: in vivo; details: mice, i.p.
[2] = test system: mice; assay: interaction with reserpine (hypothermia, ptosis); format: in vivo; details: i.p.
[3] = test system: mice; assay: four-plate test; format: in vivo, mice (EVIC CEBA strain)
Experimental: (§1) The following text summarises a part of the results of the tests which were carried out with the products according to the invention, these products (unless otherwise stated) being administered intraperitoneally, in suspension in a gum solution (gum arabic), in a volume of 20 ml/kg in the case of mice and of 5 ml/kg in the case of rats.
(§2) The test is carried out on batches of 10 sensitive mice (EVIC CEBA strain), 30 minutes after the administration of CRL 40,373.
(§3) Batches of 10 mice are subjected to the test thirty minutes after having received CRL 40,385.

[4] = test system: man; assay: clinical use in man; format: in vivo
[5] = test system: mice; assay: inter-group aggressiveness (number of fights); format: in vivo; details: mice, i.p.; for aggressiveness: large/high dose
Experimental: as §1
After three weeks' residence in each of the halves of a cage divided by an opaque partition, the mice receive CRL 40,373 thirty minutes before being brought together by withdrawing the partition.
After 18 days' residence on either side of a partition separating their cage in the middle, groups of 3 mice receive CRL 40,385 and are brought together half an hour later by withdrawing the partition, and the number of fights which take place in the course of 15 minutes is noted.

[6] = test system: central nervous system; assay: psychopharmacological study / behaviour; format: in vivo, mice; details: for reactivity: mice
[7] = test system: mice; assay: motility reduced by hypoxia treatment (motor recovery); format: in vivo; details: mice, i.p.
[8] = test system: mice; assay: traction (motor incoordination); format: in vivo, mice (EVIC CEBA strain)
[9] = test system: mice; assay: toxicity (isolated mice, intraperitoneal); format: in vivo
Experimental: as §1

[10] = test system: mice; assay: spontaneous motility (actimeter); format: in vivo
Experimental: as §1
Thirty minutes after having been given CRL 40,373, the mice (6 per dose, 12 comparison animals) are placed in an actimeter, where their motility is recorded for half an hour.
Thirty minutes after having been given CRL 40,385, the mice are placed in actimeters where their motility is recorded for half an hour.

[11] = test system: mice; assay: motility reduced by habituation to a cage (residual motility); format: in vivo; details: i.p.
Experimental: as §1
Mice which have remained for 18 hours in the actimeters are given CRL 40,373. They are immediately replaced in their cages and, after a period of half an hour, their motility is recorded for 30 minutes (6 animals per dose, 12 comparison animals).
After remaining for 18 hours in the actimeters, the mice receive CRL 40,385. Immediately afterwards they are replaced in their cage and half an hour afterwards the recording of the motility starts and is continued for 30 minutes.

[12] = test system: rats; assay: prolonged conditioning to take avoiding action (shuttle box); format: in vivo
Source text: Rats placed in a shuttle box are conditioned to avoid an electric shock by changing sides. The shock is preceded by a sound and light stimulus lasting 3 seconds, which ceases when sides are changed or after 8 seconds. The sequence is repeated every 20 seconds. Animals conditioned for several tens of minutes show a percentage of avoidance which is close to 100%. They continue to be subjected to the stimulus […] and gradually they reach a state in which they are no longer able to change sides during the period of 3 seconds during which no shock is delivered.
As a first approximation, such an effect can be likened to a resumption of conditioned activity in a tired animal.
Rats placed in a "shuttle box" are conditioned to avoid an electric shock lasting 5 seconds, by changing sides. The shock is preceded, for 3 seconds, by a sound and light stimulus which ceases when the rat changes side, or at the end of 8 seconds. The sequence repeats every 20 seconds. […] They continue to be subjected to the stimulus every 20 seconds and gradually they no longer succeed in avoiding the shock.
CRL 40,438 is then administered and any resumption of the avoidance movements is followed until the effect ceases.

[13] = test system: rats; assay: interaction with amphetamine (stereotypies in rats); format: in vivo
Experimental: as §1
30 minutes after the administration of CRL 40,373, amphetamine is injected intraperitoneally at a dose of 2 mg/kg.
Thirty minutes after the administration of CRL 40,385 the rats are given an intraperitoneal injection of 2 mg/kg of amphetamine (6 animals per dose).

[14] = test system: rats; assay: interaction with apomorphine (stereotype behaviour in rats); format: in vivo
Experimental: as §1
Batches of six rats are each given a subcutaneous injection of apomorphine (0.5 mg/kg) 30 minutes after the administration of CRL 40,373.
Batches of 6 rats are given a subcutaneous injection of 0.5 mg/kg of apomorphine 30 minutes after the administration of CRL 40,385.

[15] = test system: mice; assay: electrical shock (convulsing effects); format: in vivo, mice (EVIC CEBA strain); details: mice, i.p.
Experimental: as §1, §2, §3

Compound: COc1ccc(C[S+]([O-])CC(=O)NO)cc1 (centres unmarked) [CRL 40,498, p-Methoxybenzyl-sulphinyl-acetohydroxamic acid]
- temperature (oxotremorine-induced hypothermia) [1]: without alteration of the other hypothermia studied
- reserpine-induced hypothermia [2]: partial antagonism to reserpine-induced hypothermia
- reserpine-induced ptosis [2]: without alteration of the ptosis
- number of incorrect moves (four-plate test) ([3]; gastric administration, 512 to 32 mg/kg (and possibly less)): an increase in the number of incorrect moves
- number of incorrect moves (four-plate test) ([3]; i.p., 512 to 2 mg/kg): an increase in the number of incorrect moves
- clinical result ([4]; pill 100 mg, 2 pills per day): good results clinically as an anxiolytic agent
- aggressiveness [5]: reduction in motility, in aggressiveness
- body temperature effect (product alone) ([6]; high dose): hypothermia
- sedation / sedative effect ([6]; high dose(s)): sedation
- reactivity ([6]; high dose): reduction in motility, in aggressiveness and in reactivity
- motor recovery after hypoxia/anoxia by pressure reduction [7]: a discrete stimulant effect on the motility
- motor incapacity ([8]; high dose): without motor incapacity
- LD-O (maximum non-lethal dose) ([9]; mice, i.p.): greater than 1,204 mg/kg
- symptoms / behaviour ([9]; mouse, in vivo, ip, 256 mg/kg): sedation, depressed respiration and reaction to the touch
- spontaneous motility ([10]; mice, high dose): reduction in motility

Compound: CC(C(=O)NO)C(=O)N(c1ccccc1)c1ccccc1 (centres unmarked) [CRL 40,438, 2-(N,N-Diphenylcarbamoyl)-propionohydroxamic acid]
- oxotremorine-induced trembling [1]: moderately opposes hypothermia and ptosis induced by reserpine, and the trembling movements caused by oxotremorine
- motility reduced by habituation to the cage [11]: very marked stimulant effect where the motility has been reduced by habituation to the cage
- reserpine-induced hypothermia [2]: moderately opposes hypothermia
- reserpine-induced ptosis [2]: moderately opposes hypothermia and ptosis induced by reserpine
- resumption of avoiding actions (prolonged avoidance test) [12]: an effect of the "anti-fatigue" type
- resumption of avoiding actions (prolonged avoidance test) ([12]; i.p., 64, 128 and 256 mg/kg): causes a resumption of the avoidance behaviour
- aggressiveness [5]: reduces the aggressive behaviour of mice
- stereotype movements (product alone) ([6]; high dose): presence, at a high dose, of stereotype movements
- reactivity [6]: hyper-reactivity in mice
- psychopharmacological profile / conclusion ([6]; mouse, in vivo): effects of the excitation-inducing type; also recorded: activity of the anti-depressant type or of the psychostimulant type
- amphetamine-induced stereotypies ([13]; high dose): boosting of the stereotypies induced by apomorphine and by amphetamine
- LD-O (maximum non-lethal dose) ([9]; mice, i.p.): greater than 1,024 mg/kg
- apomorphine-induced stereotypies ([14]; high dose): boosting of the stereotypies induced by apomorphine
- spontaneous motility ([10]; i.p.): moderate increase in the spontaneous motor activity

Compound: CCCCC(CCCC)(CCCC)C(=O)NO [CRL 40,373, Tributylacetohydroxamic acid]
- oxotremorine-induced trembling [1]: no significant influence on the trembling caused by oxotremorine
- temperature (oxotremorine-induced hypothermia) ([1]; 128 and 512 mg/kg, oxotremorine 0.5 mg/kg i.p.): exerts a hypothermia-inducing effect and aggravates the lowering of the temperature produced by oxotremorine
- peripheral cholinergic symptoms of oxotremorine ([1]; high doses (128 and 512 mg/kg)): increases the hypersalivation and hyperlacrymation produced by oxotremorine
- motility reduced by habituation to the cage [11]: does not cause a resumption of the exploring activity of mice accustomed to their environment
- reserpine-induced hypothermia [2]: not modified
- reserpine-induced ptosis [2]: not modified
- number of incorrect moves (four-plate test) ([3]; mice, i.p.): does not cause an increase in the number of incorrect moves
- clinical result ([4]; tablet 100 mg, 1 to 3 tablets per day): used clinically with success as a sedative
- convulsing effects of the electric shock [15]: does not modify the convulsing effects of the electric shock
- aggressiveness [5]: reduces the number of fights
- psychopharmacological profile / conclusion ([6]; mouse, in vivo): sedative agent
- amphetamine-induced stereotypies ([13]; rats, i.p.): inhibits the amphetamine-induced stereotypies, this inhibition being proportional to the doses
- motor recovery after hypoxia/anoxia by pressure reduction [7]: does not produce an improvement in the motor recovery of mice
- motor incoordination / incapacity ([8]; i.p.): does not bring about any major motor incoordination
- mortality ([9]; isolated mice, i.p., 64, 128, 256, 512 and 1,024 mg/kg): No mortality whatsoever
- apomorphine-induced stereotypies ([14]; rats, i.p.): not influenced
- spontaneous motility ([10]; mice, i.p., 128 and 512 mg/kg): causes a reduction in the (spontaneous) motor activity of the mice

Compound: O=C(CC(=O)N1c2ccccc2CCc2ccccc21)NO [CRL 40,471, 5-(10,11-Dihydro-dibenz[b,f]azepino)-carbonylacetohydroxamic acid]
- motility reduced by habituation to the cage [11]: does not cause a resumption of the motor activity in mice habituated to their cage
- reserpine-induced hypothermia [2]: moderate antagonism against reserpine-induced hypothermia
- clinical result ([4]; tablet 0.250 mg, 2 tablets per day): good results clinically as a sedative
- inter-group aggressiveness [5]: an effect of the anti-aggressive type appears to manifest itself in the absence of any hypomotility
- aggressiveness [5]: reduces the intra-specific aggressiveness in mice
- psychopharmacological profile / conclusion ([6]; mouse, in vivo): sedative activity
- amphetamine-induced stereotypies ([13]; rats, i.p.): does not alter the stereotypies induced by amphetamine
- motor recovery after hypoxia/anoxia by pressure reduction [7]: does not improve the motor recovery in mice
- motor recovery after hypoxia/anoxia by pressure reduction ([7]; 512 mg/kg): motor recovery comparable to that of the comparison mice
- LD-O (maximum non-lethal dose) ([9]; mouse, in vivo, ip): greater than 1,024 mg/kg
- apomorphine-induced stereotypies ([14]; rats, i.p.): does not alter the stereotypies induced by amphetamine and by apomorphine
- spontaneous motility ([10]; mice, i.p., 512 mg/kg): very greatly reduces the spontaneous motility of mice

Compound: O=C(CCN1c2ccccc2Sc2ccccc21)N[O-].[Na+]
- oxotremorine-induced trembling [1]: does not alter the intensity or duration of the trembling movements induced by oxotremorine
- temperature (oxotremorine-induced hypothermia) [1]: contributes its effect to the hypothermia-inducing action of oxotremorine
- motility reduced by habituation to the cage [11]: not improved
- reserpine-induced ptosis ([2]; 128 and 32 mg/kg): aggravates the ptosis induced by reserpine
- reserpine-induced hypothermia ([2]; high dose): aggravates the hypothermia induced by reserpine
- lethal effects of the electric shock ([15]; high doses (32 and 128 mg/kg)): increase in the lethal effects of the electric shock
- body temperature effect (product alone) ([6]; mouse, in vivo): hypothermia-inducing agent
- motor recovery after hypoxia/anoxia by pressure reduction [7]: not improved
- motor incapacity ([8]; mice, i.p., high doses (32 and 128 mg/kg)): substantial motor incapacity
- LD-O (maximum non-lethal dose) ([9]; mice, i.p.): greater than 256 mg/kg
- time to death ([9]; mice, i.p., 512 mg/kg): 24 h
- time to death ([9]; mice, i.p., 1,024 mg/kg): 0.583 h
- motor activity ([10]; mice, i.p., from 8 mg/kg upwards): reduction of the motor activity
